Test results published in patent publication US12544396B2, “Compositions and methods for treating metabolic disease” (VOGENX, priority 2019, dated 2026).

Columns and labels:
[1] = orally administered to rat, in comparison with no compound; cited from earlier work
[2] = Oral glucose tolerance test (OGTT) in normal rats: plasma glucose and plasma insulin; assay type: in vivo; conditions: for Plasma glucose 0 hr / Plasma insulin 0 hr / Plasma glucose 0.25 hr / Plasma insulin 0.25 hr / Plasma glucose 0.5 hr / Plasma insulin 0.5 hr / Plasma glucose 1 hr / Plasma insulin 1 hr / Plasma glucose 2 hr / Plasma insulin 2 hr / Plasma glucose 4 hr / Plasma insulin 4 hr / Plasma glucose ΔAUC 0-1 hr / Plasma insulin ΔAUC 0-1 hr: oral, KGT-1681 3 mg/kg, KGA-3235 0.03 mg/kg, Combo 3 and 0.03 mg/kg; for Effect on increase in plasma glucose after glucose loading: FIG. 1A; for Two-way ANOVA main effect in AUC0-1hr for plasma glucose: FIG. 1B; for Effect on plasma insulin: FIG. 2A
Experimental: Example 1. Combination treatment with mizagliflozin and remogliflozin. Combination treatment with KGT-1681 and KGA-3235 in normal rats. KGT-1681 was suspended in 0.1% methylcellulose (MC) and KGA-3235 was dissolved in distilled water (DW). Rats (9 weeks of age) were divided into the following four groups and treated as indicated: vehicle, 0.1% MC+DW; KGT, KGT-1681 (3 mg/kg, 5 mL/kg) plus DW; KGA, 0.1% MC plus KGA-3235 (0.03 mg/kg, 5 mL/kg); and Combo, KGT-1681 plus KGA-3235 (3 and 0.03 mg/kg, respectively). After 16 h fasting, the drug and glucose solution (400 g/L, 5 ml/kg) were orally administered to rats. Blood was obtained in heparinized and aprotinin-treated tubes from a tail vein at each sampling point. Plasma glucose concentration was determined using a Glucose CII-test Wako (Wako Pure Chemicals, Osaka, Japan). Plasma insulin was determined using an enzyme-linked immunosorbent assay kit (Morinaga Institute of Biological Science, Inc., Yokohama, Japan). The area under the curve (AUC)0-1 hr for plasma glucose and insulin were calculated from the plasma glucose and insulin concentrations during the OGTT (Table 1).

[3] = pre-treatment before mixed meal, cited from earlier work

| SMILES | Plasma glucose 0 hr [2] [mg/dL] | Plasma insulin 0 hr [2] [pg/mL] | Plasma glucose 0.25 hr [2] [mg/dL] | Plasma insulin 0.25 hr [2] [pg/mL] | Plasma glucose 0.5 hr [2] [mg/dL] | Plasma insulin 0.5 hr [2] [pg/mL] | Plasma glucose 1 hr [2] [mg/dL] | Plasma insulin 1 hr [2] [pg/mL] | Plasma glucose 2 hr [2] [mg/dL] | Plasma insulin 2 hr [2] [pg/mL] | Plasma glucose 4 hr [2] [mg/dL] | Plasma insulin 4 hr [2] [pg/mL] | Effect on increase in plasma glucose after glucose loading [2] | Two-way ANOVA main effect in AUC0-1hr for plasma glucose [2] | Effect on plasma insulin [2] | Plasma glucose ΔAUC 0-1 hr [2] [mg·h/dL] | Plasma insulin ΔAUC 0-1 hr [2] [pg·h/mL] | other results |
| --- | --- | --- | --- | --- | --- | --- | --- | --- | --- | --- | --- | --- | --- | --- | --- | --- | --- | --- |
| CCOC(=O)OC[C@H]1O[C@@H](Oc2ccccc2Cc2ccc(OC)cc2)[C@H](O)[C@@H](O)[C@@H]1O [2-(4-methoxybenzyl)phenyl 6-O-ethoxycarbonyl-β-D-glucopyranoside] |  |  |  |  |  |  |  |  |  |  |  |  |  |  |  |  |  | Increase of lipid accumulative amount in rat liver [1]: inhibited significantly |
| Cc1cc(OCCCNCC(C)(C)C(N)=O)ccc1Cc1c(O[C@@H]2O[C@H](CO)[C@@H](O)[C@H](O)[C@H]2O)n[nH]c1C(C)C [KGA-3235, 3-(3-{4-[3-(β-D-glucopyranosyloxy)-5-isopropyl-1H-pyrazol-4-ylmethyl-]-3-methylphenoxy}propylamino)-2,2-dimethylpropionamide] | 92 ± 4 | 278 ± 25 | 147 ± 7 | 1197 ± 146 | 164 ± 5 | 1014 ± 131 | 169 ± 5 | 933 ± 111 | 136 ± 2 | 551 ± 98 | 80 ± 3 | 286 ± 39 | inhibited the increase in plasm glucose | significant main effect | decreased | 152 ± 4 | 948 ± 88 |  |
| CCOC(=O)OC[C@H]1O[C@@H](Oc2nn(C(C)C)c(C)c2Cc2ccc(OC(C)C)cc2)[C@H](O)[C@@H](O)[C@@H]1O [KGT-1681, 5-methyl-4-[4-(1-methylethoxy)benzyl]-1-(1-methylethyl)-1H-pyrazol-3-yl 6-O-(ethoxycarbonyl)-β-D glucopyranoside] | 101 ± 3 | 380 ± 29 | 146 ± 5 | 1219 ± 183 | 163 ± 7 | 978 ± 182 | 168 ± 6 | 1187 ± 152 | 113 ± 5 | 425 ± 40 | 85 ± 2 | 338 ± 92 | inhibited the increase in plasm glucose | significant main effect | decreased | 152 ± 5 | 1020 ± 148 |  |
| OC[C@H]1O[C@@H](c2ccc(Cl)c(Cc3ccc(O[C@H]4CCOC4)cc3)c2)[C@H](O)[C@@H](O)[C@@H]1O [empagliflozin] |  |  |  |  |  |  |  |  |  |  |  |  |  |  |  |  |  | Severity of hypoglycemic events ([3]; versus placebo, p=0.037): significantly reduced; Nadir glucose values [3]: significantly increased; Events requiring rescue glucose administration ([3]; placebo 7 of 12 patients): two |
